Results reported in patent US11261175B2 (priority 2017, dated 2022).

Tests used:
Type in all cases: cell-based
[1] = system: HCV replicon S52-Feo (genotype 3a); assay: Anti-HCV activity using HCV replicon S52-Feo (genotype 3a) in Huh 7.5.1 cells, luciferase readout; conditions: Hepatitis C virus, 72 h; Huh 7.5.1 cells with S52-Feo replicon, 3 days, firefly luciferase; read-out: HCV wt. GT-3a
[2] = system: HCV genotype 1b replicon with NS5A L31V+Y93H (double mutant); assay: Transiently transfected assay of genotype 1b resistance mutant RNA L31V+Y93H (double mutant); conditions: Hepatitis C virus, Huh-7.5.1, 72 h, read-out: HCV Mutation L31V + Y93H
Source text: (§1) <Experimental Example 3> Transiently Transfected Assay of Genotype 1b Resistance Mutant RNAs
(§2) Replicon genomes substituted with Y93H, L31V and L31V+Y93H (double mutant), the resistance mutants to Daclatasvir with mutations at the NS5A protein domain 1.
(§3) These HCV resistance mutant genomes were linearized with scal restriction enzyme, and then the mutated HCV RNA was synthesized through in vitro transcription. Huh 7.5.1 cells were individually electroporated with HCV RNA with resistant mutations and plated in a 12 well plate. After 4 hours, Huh7.5.1 cells were seeded in DMEM containing the compounds of examples serially diluted for 3 days. Three days later, the cells were harvested and the intracellular luciferase activity was measured. The luciferase activity was normalized with those obtained from the negative control cells (mock-treated cells).

[3] = system: JFH5a-Rluc-ad34 virus (HCV GT-2a); assay: Anti-HCV activity using HCVcc (JFH5a-Rluc-ad34 virus) in Huh 7.5.1 cells, Renilla luciferase readout; conditions: Hepatitis C virus, GT2A, Huh-7.5.1, 72 h, read-out: HCV wt. GT-2a
Description: <Experimental Example 1> Measurement of Anti-HCV Activity of Compounds of Examples Using HCVcc
Step 1: Cell Line and Cell Culture
Huh 7.5.1 cells were grown in Dulbecco's Modified Eagle's medium (DMEM; Gibco) supplemented with antibiotics (100 U/mL penicillin, 10 μg/mL streptomycin) and 10% heat-inactivated fetal bovine serum (ΔFBS; PEAK) in a CO2 incubator at 37° C. with […].
Huh7.5.1 cells were transfected with in vitro transcription RNA of JFH5a-Rluc-ad34, a derivative of JFH1 with adaptive mutations in E2 and p7 regions, by electroporation. JFH5a-Rluc-ad34 virus contains Renilla luciferase (Rluc), which is convenient for virus proliferation assay. The cell culture medium containing HCV was collected 3-5 days after the electroporation and then filtered through a […] pore size filter.
Step 3: Antiviral Activity Test Using Infectious HCV Particles
Huh 7.5.1 cells were inoculated with JFH5a-Rluc-ad34 virus and incubated for 4 hours. Four hours after the virus inoculation, the Huh7.5.1 cells infected with HCV were cultured in the medium containing the compound of examples serially diluted. Three days later, the cells were harvested and the intracellular luciferase activity was measured using Renilla luciferase assay system (Promega). Finally, the luciferase activity was normalized with those obtained from the negative control cells (mock-treated cells).

[4] = system: HCV genotype 1b replicon with NS5A L31V mutation; assay: Transiently transfected assay of genotype 1b resistance mutant RNA L31V; conditions: Hepatitis C virus, Huh-7.5.1, 72 h, read-out: HCV Mutation L31V
Source text: as §1, §2, §3

[5] = system: HCV genotype 1b replicon with NS5A Y93H mutation; assay: Transiently transfected assay of genotype 1b resistance mutant RNA Y93H; conditions: Hepatitis C virus, Huh-7.5.1, 72 h, read-out: HCV Mutation Y93H
Source text: as §1, §2, §3

[6] = system: HCV replicon NK5.1-Gluc (genotype 1b); assay: Anti-HCV activity using HCV replicon NK5.1-Gluc (genotype 1b) in Huh 7.5.1 cells, luciferase readout; conditions: Hepatitis C virus, 72 h; Huh 7.5.1 cells with NK5.1-Gluc replicon, 3 days, Gaussia luciferase; read-out: HCV wt. GT-1b

| Compound | EC50 [1] [pM] | EC50 [2] [pM] | EC50 [3] [pM] | EC50 [4] [pM] | EC50 [5] [pM] | EC50 [6] [pM] |
| --- | --- | --- | --- | --- | --- | --- |
| CCCCC1(CCCC)c2cc(NC(=O)[C@@H]3C[C@@H](OC(=O)C(C)C)CN3C(=O)[C@H](NC(=O)OC)c3ccccc3)ccc2-c2ccc(NC(=O)[C@@H]3C[C@@H](OC(=O)C(C)C)CN3C(=O)[C@H](NC(=O)OC)c3ccccc3)cc21 [Example 32, (3R,3′R,5S,5′S,52R)-5,5′-(9,9-dibutyl-9H-fluorene-2,7-diyl)bis(azanediyl)bis(oxomethylene)bis(1-((R)-2-(methoxycarbonylamino)-2-phenylacetyl)pyrrolidine-5,3-diyl) bis(2-methylpropanoate)] | 10 to 100 | 10 to 100 | 100 to 1000 | 10 to 100 | 10 to 100 | 1 to 10 |
| CCCCC1(CCCC)c2cc(NC(=O)[C@@H]3CCCN3C(=O)[C@H](NC(=O)OC)c3ccccc3)ccc2-c2ccc(-c3cnc([C@@H]4CCCN4C(=O)[C@@H](NC(=O)OC)C(C)C)[nH]3)cc21 [Example 9, methyl ((S)-1-((S)-2-(5-(9,9-dibutyl-7-((S)-1-((R)-2-((methoxycarbonyl)amino)-2-phenylacetyl)pyrrolidine-2-carboxyamido)-9H-fluorene-2-yl)-1H-imidazole-2-yl)pyrrolidine-1-yl)-3-methyl-1-oxobutane-2-yl)carbamate] | 10 to 100 | 100 to 1000 | 10 to 100 | 10 to 100 | 10 to 100 | 1 to 10 |
| CCCC1(CCC)c2cc(NC(=O)[C@@H]3CCCN3C(=O)[C@H](NC(=O)OC)c3ccccc3)ccc2-c2ccc(NC(=O)[C@@H]3CCCN3C(=O)[C@H](NC(=O)OC)c3ccccc3)cc21 [Example 1, dimethyl ((1R,1′R)-((2S,2′S)-(((9,9-dipropyl-9H-fluorene-2,7-diyl)bis(azanediyl))bis(carbonyl))bis(pyrrolidine-2,1-diyl))bis(2-oxo-1-phenylethane-2,1-diyl))dicarbamate] | 100 to 1000 | > 100000 | 1000 to 100000 | 100 to 1000 | 1000 to 100000 | 10 to 100 |
| CCCCC1(CCCC)c2cc(NC(=O)[C@@H]3CCCN3C(=O)[C@H](NC(=O)OC)c3ccccc3)ccc2-c2ccc(NC(=O)[C@@H]3CC4(CN3C(=O)[C@H](NC(=O)OC)c3ccccc3)OCCO4)cc21 [Example 16, methyl ((R)-2-((S)-8-((9,9-dibutyl-7-((S)-1-((R)-2-((methoxycarbonyl)amino)-2-phenylacetyl)pyrrolidine-2-carboxyamido)-9H-fluorene-2-yl)carbamoyl)-1,4-dioxa-7-azaspiro[4.4]nonane-7-yl)-2-oxo-1-phenylethyl)carbamate] | 10 to 100 | 1000 to 100000 | 1000 to 100000 | 1 to 10 | 10 to 100 | 1 to 10 |
| CCCCC1(CCCC)c2cc(NC(=O)[C@@H]3CC(=O)CN3C(=O)[C@H](NC(=O)OC)c3ccccc3)ccc2-c2ccc(NC(=O)[C@@H]3CC4(CN3C(=O)[C@H](NC(=O)OC)c3ccccc3)OCCO4)cc21 [Example 7, methyl ((R)-2-((S)-8-((9,9-dibutyl-7-((S)-1-((R)-2-((methoxycarbonyl)amino)-2-phenylacetyl)-4-oxopyrrolidine-2-carboxyamido)-9H-fluorene-2-yl)carbamoyl)-1,4-dioxa-7-azaspiro[4.4]nonane-7-yl)-2-oxo-1-phenylethyl)carbamate] | 10 to 100 | 100 to 1000 | 1000 to 100000 | 1 to 10 | 10 to 100 | 10 to 100 |
| CCCCC1(CCCC)c2cc(NC(=O)[C@@H]3CCCN3C(=O)[C@H](NC(=O)OC)c3ccccc3)ccc2-c2ccc(NC(=O)[C@@H]3CC(=O)CN3C(=O)[C@H](NC(=O)OC)c3ccccc3)cc21 [Example 10, methyl ((R)-2-((S)-2-((9,9-dibutyl-7-((S)-1-((R)-2-((methoxycarbonyl)amino)-2-phenylacetyl)pyrrolidine-2-carboxyamido)-9H-fluorene-2-yl)carbamoyl)-4-oxopyrrolidine-1-yl)-2-oxo-1-phenylethyl)carbamate] | 10 to 100 | 1000 to 100000 | 100 to 1000 | 1 to 10 | 100 to 1000 | 1 to 10 |
| CCCCC1(CCCC)c2cc(NC(=O)[C@@H]3CC4(CC4)CN3C(=O)[C@H](NC(=O)OC)c3ccccc3)ccc2-c2ccc(-c3cnc([C@@H]4CCCN4C(=O)[C@@H](NC(=O)OC)C(C)C)[nH]3)cc21 [Example 26, methyl ((S)-1-((S)-2-(5-(9,9-dibutyl-7-((S)-5-((R)-2-((methoxycarbonyl)amino)-2-phenylacetyl)-5-azaspiro[2.4]heptane-6-carboxyamido)-9H-fluorene-2-yl)-1H-imidazole-2-yl)pyrrolidine-1-yl)-3-methyl-1-oxobutane-2-yl)carbamate] | 10 to 100 | > 100000 | 10 to 100 | 10 to 100 | 100 to 1000 | 1 to 10 |
| CCCCC1(CCCC)c2cc(NC(=O)[C@@H]3C[C@H]4CCC[C@H]4N3C(=O)[C@H](NC(=O)OC)c3ccccc3)ccc2-c2ccc(NC(=O)[C@@H]3C[C@H]4CCC[C@H]4N3C(=O)[C@H](NC(=O)OC)c3ccccc3)cc21 [Example 22, dimethyl ((1R,1′R)-((2S,2′S,3aR,3a′R,6aR,6a′R)-(((9,9-dibutyl-9H-fluorene-2,7-diyl)bis(azanediyl))bis(carbonyl))bis(hexahydrocyclopenta[b]pyrrole-2,1(2H)-diyl))bis(2-oxo-1-phenylethane-2,1-diyl))dicarbamate] | 10 to 100 | > 100000 | 1000 to 100000 | 1 to 10 | 10 to 100 | 1 to 10 |
| CCCCC1(CCCC)c2cc(NC(=O)[C@@H]3C[C@H]4CCC[C@H]4N3C(=O)[C@H](NC(=O)OC)c3ccccc3)ccc2-c2ccc(-c3cnc([C@@H]4CCCN4C(=O)[C@@H](NC(=O)OC)C(C)C)[nH]3)cc21 [Example 28, methyl ((S)-1-((S)-2-(5-(9,9-dibutyl-7-((2S,3aR,6aR)-1-((R)-2-((methoxycarbonyl)amino)-2-phenylacetyl)octahydrocyclopenta[b]pyrrole-2-carboxyamido)-9H-fluorene-2-yl)-1H-imidazole-2-yl)pyrrolidine-1-yl)-3-methyl-1-oxobutane-2-yl)carbamate] | 10 to 100 | > 100000 | 10 to 100 | 10 to 100 | 100 to 1000 | 1 to 10 |
| CCCCC1(CCCC)c2cc(NC(=O)[C@@H]3CCCN3C(=O)[C@H](NC(=O)OC)c3ccccc3)ccc2-c2ccc(NC(=O)[C@@H]3CCCN3C(=O)[C@H](NC(=O)OC)c3ccccc3)cc21 [Example 2, dimethyl ((1R,1′R)-((2S,2′S)-(((9,9-dibutyl-9H-fluorene-2,7-diyl)bis(azanediyl))bis(carbonyl))bis(pyrrolidine-2,1-diyl))bis(2-oxo-1-phenylethane-2,1-diyl))dicarbamate] | 10 to 100 | 1000 to 100000 | 1000 to 100000 | 1 to 10 | 100 to 1000 | 1 to 10 |
| CCCCC1(CCCC)c2cc(NC(=O)[C@@H]3C[C@H](O)CN3C(=O)[C@H](NC(=O)OC)c3ccccc3)ccc2-c2ccc(NC(=O)[C@@H]3C[C@H](O)CN3C(=O)[C@H](NC(=O)OC)c3ccccc3)cc21 [Example 35, dimethyl (1R,1′R)-2,2′-((3S,3′S,5S,5′S)-5,5′-(9,9-dibutyl-9H-fluorene-2,7-diyl)bis(azanediyl)bis(oxomethylene)bis(3-hydroxypyrrolidine-5,1-diyl))bis(2-oxo-1-phenylethane-2,1-diyl)dicarbamate] | 10 to 100 | 1000 to 100000 | 1000 to 100000 | 1 to 10 | 100 to 1000 | 10 to 100 |
